Data published in patent US7749996B2, “Heterotricyclic metalloprotease inhibitors” (Alantos Pharmaceutical Holdings, Inc., priority 2006, dated 2010).

How the values were obtained:
Type in all cases: biochemical
[1] = molecular target: T1, catalytic domain of MMP-13 enzyme (Homo sapiens, UniProt P45452); assay: Assay for determining MMP-13 inhibition (fluorescent substrate); conditions: Table 1, activity group
T1 construct: stock solution of catalytic domain of MMP-13 enzyme (produced by Alantos or commercially available from Invitek (Berlin), Cat.# 30100812); purchased Invitek (Berlin) 30100812
Procedure: (§1) The typical assay for MMP-13 activity is carried out in assay buffer comprised of 50 mM Tris, pH 7.5, 150 mM NaCl, 5 mM CaCl2 and 0.05% Brij-35. Different concentrations of tested compounds are prepared in assay buffer in 50 μL aliquots. […] The mixture of enzyme and compound in assay buffer is thoroughly mixed and incubated for 10 min at room temperature. […] The time-dependent increase in fluorescence is measured at the 320 nm excitation and 390 nm emission by automatic plate multireader. The IC50 values are calculated from the initial reaction rates.

activated MMP-8 enzyme = molecular target: T2, activated MMP-8 enzyme (Homo sapiens, UniProt P22894); assay: Assay for determining MMP-8 inhibition (fluorescent substrate); conditions: Table 2, activity group
T2 construct: purchased Calbiochem 444229
T2 sequence (P22894 101-467): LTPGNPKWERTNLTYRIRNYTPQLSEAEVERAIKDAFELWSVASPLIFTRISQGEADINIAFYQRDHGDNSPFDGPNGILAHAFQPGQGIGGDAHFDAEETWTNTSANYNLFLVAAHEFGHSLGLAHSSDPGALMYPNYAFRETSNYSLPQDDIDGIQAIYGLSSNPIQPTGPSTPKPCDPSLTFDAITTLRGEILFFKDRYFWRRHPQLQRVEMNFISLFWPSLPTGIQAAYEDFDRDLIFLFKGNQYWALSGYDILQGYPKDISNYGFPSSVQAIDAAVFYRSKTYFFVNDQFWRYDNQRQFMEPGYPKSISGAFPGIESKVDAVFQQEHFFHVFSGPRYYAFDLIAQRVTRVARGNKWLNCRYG
Procedure: as §1, with “MMP-8” for “MMP-13”, “37° C.” for “room temperature.”, “by an” for “by”, “multireader at 37° C.” for “multireader.”

[2] = molecular target: T3, catalytic domain of MMP-3 enzyme (Homo sapiens, UniProt P08254); assay: Assay for determining MMP-3 inhibition (NFF-3 fluorescent substrate); conditions: Table 3, activity group
T3 construct: stock solution of the catalytic domain of MMP-3 enzyme (Biomol, Cat. No. SE-109); purchased Biomol SE-109
T3 sequence (P08254 100-272 limits assumed): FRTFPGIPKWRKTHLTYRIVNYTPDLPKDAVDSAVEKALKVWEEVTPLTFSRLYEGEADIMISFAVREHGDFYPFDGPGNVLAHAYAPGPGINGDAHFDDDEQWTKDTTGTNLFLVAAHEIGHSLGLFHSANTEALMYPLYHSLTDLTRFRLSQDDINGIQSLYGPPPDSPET
Procedure: as §1, with “MMP-3” for “MMP-13”, “MES,” for “Tris,”, “6.0, 10” for “7.5, 150 mM NaCl, 5”, “330” for “320”, “by an” for “by”

IC50 [1] [µM]	IC50 (activated MMP-8 enzyme) [µM]	IC50 [2] [µM]	SMILES
< 0.1	< 0.25	0.25 to 20	CC(=O)N1CCc2c(sc3nc(C(=O)NCc4ccc5c(c4)CN(c4c(N)c(=O)c4=O)CC5)[nH]c(=O)c23)C1 [2/95]
< 0.1	< 0.25	< 0.25	O=C1COc2ccc(CNC(=O)c3nc4sc5c(c4c(=O)[nH]3)CCS(=O)(=O)C5)cc2N1 [2/103]
	< 0.25	< 0.25	Nc1c(N2CCc3ccc(CNC(=O)c4nc5sc6c(c5c(=O)[nH]4)CCS(=O)(=O)C6)cc3C2)c(=O)c1=O [2/104]
< 0.1	< 0.25	0.25 to 20	COc1ccc2c(c1)CCc1sc3nc(C(=O)NCc4ccc5c(c4)NC(=O)CO5)[nH]c(=O)c3c1-2 [2/107]
< 0.1		0.25 to 20	COc1ccc2c(c1)CCc1sc3nc(C(=O)NCc4ccc5c(c4)CN(c4c(N)c(=O)c4=O)CC5)[nH]c(=O)c3c1-2 [2/108]
< 0.1	< 0.25	0.25 to 20	CC1SCc2sc3nc(C(=O)NCc4ccc5c(c4)CN(c4c(N)c(=O)c4=O)CC5)[nH]c(=O)c3c21 (stereo not shown) [2/132]
< 0.1	< 0.25	0.25 to 20	CC(C)(C)OC(=O)N1CCc2sc3nc(C(=O)NCc4ccc5c(c4)NC(=O)CO5)[nH]c(=O)c3c2CC1 [2/171]
< 0.1	< 0.25		CC(NC(=O)C1CCc2sc3nc(C(=O)NCc4ccc5c(c4)NC(=O)CO5)[nH]c(=O)c3c21)c1ccccc1 (stereo not shown) [2/175]
< 0.1	< 0.25		Cc1cc(CNC(=O)C2CCc3sc4nc(C(=O)NCc5ccc6c(c5)NC(=O)CO6)[nH]c(=O)c4c32)ccc1F (stereo not shown) [2/176]
< 0.1	< 0.25	0.25 to 20	O=C1COc2ccc(CNC(=O)C3NC(=O)c4c(sc5c4CCCN(CC4CCCCO4)C5=O)N3)cc2N1 (stereo not shown) [2/188]
< 0.1		0.25 to 20	CCOC(=O)C1CCc2sc3nc(C(=O)NCc4ccc5c(c4)NC(=O)CO5)[nH]c(=O)c3c2C1 (stereo not shown) [2/208]
< 0.1	< 0.25	0.25 to 20	CCOC(=O)C1CCc2sc3nc(C(=O)NCc4ccc5c(c4)CN(c4c(N)c(=O)c4=O)CC5)[nH]c(=O)c3c2C1 (stereo not shown) [2/209]
< 0.1		0.25 to 20	CCOC(=O)C1Cc2sc3nc(C(=O)NCc4ccc5c(c4)NC(=O)CO5)[nH]c(=O)c3c2C1 (stereo not shown) [2/210]
< 0.1	< 0.25	0.25 to 20	O=C1COc2ccc(CNC(=O)c3nc4sc5c(c4c(=O)[nH]3)CCOCC5)cc2N1 [2/211]
< 0.1	< 0.25		CC(C)(C)OC(=O)CNC(=O)C1CCc2sc3nc(C(=O)NCc4ccc5c(c4)NC(=O)CO5)[nH]c(=O)c3c21 (stereo not shown) [2/224]
< 0.1		0.25 to 20	CC(C)CNC(=O)C1Cc2sc3nc(C(=O)NCc4ccc5c(c4)NC(=O)CO5)[nH]c(=O)c3c2C1 (stereo not shown) [2/231]
		0.25 to 20	NC(=O)C1Cc2sc3nc(C(=O)NCc4ccc5c(c4)CN(c4c(N)c(=O)c4=O)CC5)[nH]c(=O)c3c2C1 (stereo not shown) [2/232]
		0.25 to 20	CCOC(=O)CC1CCCc2sc3nc(C(=O)NCc4ccc5c(c4)NC(=O)CO5)[nH]c(=O)c3c21 (stereo not shown) [2/236]
		0.25 to 20	NC(=O)CC1CCCc2sc3nc(C(=O)NCc4ccc5c(c4)NC(=O)CO5)[nH]c(=O)c3c21 (stereo not shown) [2/240]
< 0.1		0.25 to 20	O=C1COc2ccc(CNC(=O)c3nc4ccc5c(c4c(=O)[nH]3)CCC5)cc2N1 [2/245]
< 0.1	< 0.25		C#CCNC(=O)CC1CCCc2sc3nc(C(=O)NCc4ccc5c(c4)NC(=O)CO5)[nH]c(=O)c3c21 (stereo not shown) [2/251]
< 0.1	< 0.25		NC(=O)CNC(=O)C1CCc2sc3nc(C(=O)NCc4ccc5c(c4)NC(=O)CO5)[nH]c(=O)c3c21 (stereo not shown) [2/255]
< 0.1	< 0.25		NC(=O)C1CCCCc2sc3nc(C(=O)NCc4ccc5c(c4)NC(=O)CO5)[nH]c(=O)c3c21 (stereo not shown) [2/267]
< 0.1	0.25 to 20		O=C(NCc1ccc(F)cc1)c1nc2sc3c(c2c(=O)[nH]1)CCC3 [2/290]
0.1 to 20	0.25 to 20		O=C(NCc1cccc(F)c1)c1nc2sc3c(c2c(=O)[nH]1)CCC3 [2/292]
< 0.1	< 0.25		Cc1cc(CNC(=O)c2nc3sc4c(c3c(=O)[nH]2)CCC4)ccc1F [2/313]
< 0.1	0.25 to 20		COC(=O)c1cccc(CNC(=O)c2nc3sc4c(c3c(=O)[nH]2)CCC4)c1 [2/316]

IC50 [1] [µM]	IC50 (activated MMP-8 enzyme) [µM]	IC50 [2] [µM]	SMILES
0.1 to 20	0.25 to 20		Cc1cccc(CNC(=O)c2nc3sc4c(c3c(=O)[nH]2)CCC4)c1 [2/383]
0.1 to 20	0.25 to 20		COc1ccc(CNC(=O)c2nc3sc4c(c3c(=O)[nH]2)CCC4)cc1 [2/384]
< 0.1	< 0.25		Nc1c(NCc2cccc(CNC(=O)c3nc4sc5c(c4c(=O)[nH]3)CCC5)c2)c(=O)c1=O [2/413]
< 0.1	0.25 to 20		Nc1c(NCc2cc(CNC(=O)c3nc4sc5c(c4c(=O)[nH]3)CCC5)ccc2F)c(=O)c1=O [2/417]
0.1 to 20	0.25 to 20		O=C(NCc1ccc2c(c1)OCCO2)c1nc2sc3c(c2c(=O)[nH]1)CCC3 [2/428]
0.1 to 20	0.25 to 20		O=C(NCc1ccc(F)c(Cl)c1)c1nc2sc3c(c2c(=O)[nH]1)CCC3 [2/433]
< 0.1	0.25 to 20		O=C(NCc1cccc(N2CCSCC2)c1)c1nc2sc3c(c2c(=O)[nH]1)CCC3 [2/528]
0.1 to 20	0.25 to 20		CS(=O)(=O)N1CCc2ccc(CNC(=O)c3nc4sc5c(c4c(=O)[nH]3)CCC5)cc2C1 [2/538]
< 0.1	< 0.25		Nc1c(N2CCc3ccc(CNC(=O)c4nc5sc6c(c5c(=O)[nH]4)CC(C(=O)O)C6)cc3C2)c(=O)c1=O (stereo not shown) [4/14]
< 0.1	< 0.25	0.25 to 20	O=C1COc2ccc(CNC(=O)c3nc4sc5c(c4c(=O)[nH]3)CC(C(=O)O)C5)cc2N1 (stereo not shown) [4/15]
< 0.1	< 0.25	0.25 to 20	O=C(O)CNC(=O)C1CCc2sc3nc(C(=O)NCc4ccc5c(c4)NC(=O)CO5)[nH]c(=O)c3c21 (stereo not shown) [15/2]
< 0.1	0.25 to 20	0.25 to 20	CC1c2c(sc3nc(C(=O)NCc4ccc5c(c4)NC(=O)CO5)[nH]c(=O)c23)CS1(=O)=O (stereo not shown) [22/2]
0.1 to 20	0.25 to 20		O=C1COc2ccc(CNC(=O)c3nc4cc5ccccc5cc4c(=O)[nH]3)cc2N1 [39/20]
< 0.1	< 0.25	< 0.25	CS(=O)(=O)N1Cc2sc3nc(C(=O)NCc4ccc5c(c4)NC(=O)CO5)[nH]c(=O)c3c2C1 [42/2]
< 0.1	< 0.25		O=C1COc2ccc(CNC(=O)c3nc4sc5c(c4c(=O)[nH]3)CCC5)cc2N1 [Example 1]
< 0.1	< 0.25		NC(=O)C1CCc2sc3nc(C(=O)NCc4ccc5c(c4)NC(=O)CO5)[nH]c(=O)c3c21 (stereo not shown) [Example 2/166]
< 0.1	0.25 to 20	0.25 to 20	O=C(O)CC1CCCc2sc3nc(C(=O)NCc4ccc5c(c4)NC(=O)CO5)[nH]c(=O)c3c21 (stereo not shown) [Example 3]
< 0.1	< 0.25	0.25 to 20	O=C(O)CNC(=O)CC1CCCc2sc3nc(C(=O)NCc4ccc5c(c4)NC(=O)CO5)[nH]c(=O)c3c21 (stereo not shown) [Example 15]
< 0.1	< 0.25	0.25 to 20	N#CC1CCc2sc3nc(C(=O)NCc4ccc5c(c4)NC(=O)CO5)[nH]c(=O)c3c21 (stereo not shown) [Example 19]
< 0.1	< 0.25	0.25 to 20	O=C1COc2ccc(CNC(=O)c3nc4sc5c(c4c(=O)[nH]3)CCCS(=O)(=O)C5)cc2N1 [Example 22/1]
< 0.1	0.25 to 20	0.25 to 20	O=C1COc2ccc(CNC(=O)c3nc4sc5c(c4c(=O)[nH]3)CCCS5(=O)=O)cc2N1 [Example 22]
< 0.1	< 0.25	0.25 to 20	O=C1COc2ccc(CNC(=O)c3nc4sc5c(c4c(=O)[nH]3)CCC[S+]([O-])C5)cc2N1 (stereo not shown) [Example 26]
< 0.1		< 0.25	O=C1COc2ccc(CNC(=O)c3nc4ccc5c(c4c(=O)[nH]3)OCO5)cc2N1 [Example 28]
< 0.1	0.25 to 20		O=C1COc2ccc(CNC(=O)c3nc4sc5c(c4c(=O)[nH]3)CNC5)cc2N1 [Example 41]
	0.25 to 20	0.25 to 20	O=C1COc2ccc(CNC(=O)c3nc4sc5c(c4c(=O)[nH]3)CN(C(=O)CC(F)(F)F)C5)cc2N1 [Example 42/1]
< 0.1		< 0.25	O=C1COc2ccc(CNC(=O)c3nc4sc5c(c4c(=O)[nH]3)CN(c3ncccn3)C5)cc2N1 [Example 43]
